According to ChEMBL document CHEMBL1159266, “Antineoplastic agents, 325. Isolation and structure of the human cancer cell growth inhibitory cyclic octapeptides phakellistatin 10 and 11 from Phakellia sp” (1995):
Values after ≈ are worked out from the molar mass of the structure shown. Where a SMILES comes first, the peptide text is derived from it.

Key:
Type in all cases: functional
L1210 = assay: Cytotoxicity against mouse L1210 cells; details: read-out: ED50 (the source's name)
P388 = assay: Cytotoxicity against mouse P388 cells; details: read-out: ED50 (the source's name)
[1] = Growth inhibition of human NCI60 cells

Compound | EC50 (L1210) | EC50 (P388) | GI50 [1]
CC(C)C[C@@H]1NC(=O)[C@@H]2CCCN2C(=O)[C@H](C(C)C)NC(=O)[C@H](Cc2c[nH]c3ccccc23)NC(=O)[C@@H]2CCCN2C(=O)[C@H](CC(C)C)NC(=O)[C@@H]2CCCN2C(=O)[C@H]([C@@H](C)O)NC1=O [HYMENAMIDE H] (cyclo(LPWVPLTP)) | 6.3 µg/mL (≈ 6.97 µM) | – | –
CC(C)[C@@H]1NC(=O)[C@H](CCCCN)NC(=O)[C@H](Cc2c[nH]c3ccccc23)NC(=O)[C@H](Cc2ccccc2)NC(=O)[C@H](CC(=O)O)NC(=O)[C@H](Cc2ccc(O)cc2)NC(=O)[C@@H]2CCCN2C(=O)[C@H](Cc2ccc(O)cc2)NC1=O [HYMENAMIDE J] (cyclo(DFWKVYPY)) | 2.6 µg/mL (≈ 2.37 µM) | – | –
CC[C@H](C)[C@@H]1NC(=O)[C@H](Cc2ccccc2)NC(=O)[C@@H]2CCCN2C(=O)[C@H](Cc2ccccc2)NC(=O)[C@@H]2CCCN2C(=O)[C@H](CCC(N)=O)NC(=O)[C@@H]2CCCN2C(=O)[C@H](Cc2ccccc2)NC1=O [PHAKELLI STATIN 11] (cyclo(FIFPQPFP)) | – | 0.2 µg/mL (≈ 0.205 µM) | 0.132 µM
CC[C@H](C)[C@@H]1NC(=O)[C@@H]2CCCN2C(=O)[C@H]([C@@H](C)O)NC(=O)[C@H](CC(C)C)NC(=O)[C@@H]2CCCN2C(=O)[C@H](C(C)C)NC(=O)[C@H](Cc2ccc(O)cc2)NC(=O)[C@@H]2CCCN2C1=O [PHAKELLISTATIN 10] (cyclo(IPYVPLTP)) | – | 2.1 µg/mL (≈ 2.38 µM) | 0.79 µM
